# In PMC4139061, “Structural basis of nucleoside and nucleoside drug selectivity by concentrative nucleoside transporters” (eLife, 2014):
# Where “and” joins values, the source holds several entries; their conditions need not be identical. Equal entries are not always repeated.
# Key:
# vcCNT = vcCNT (Vibrio cholerae, UniProt Q9KPL5); test: biochemical; format: binding; settings: for mAnisotropy: [pyrrolo-gemcitabine] 2.00 μM
# hCNT3 = target: T1, hCNT3 (Homo sapiens, UniProt Q9HAS3); test: two-electrode voltage-clamp of Na+ currents / total charge in Xenopus oocytes expressing hCNT3; format: cell-based
# T1 sequence (Q9HAS3 1-691): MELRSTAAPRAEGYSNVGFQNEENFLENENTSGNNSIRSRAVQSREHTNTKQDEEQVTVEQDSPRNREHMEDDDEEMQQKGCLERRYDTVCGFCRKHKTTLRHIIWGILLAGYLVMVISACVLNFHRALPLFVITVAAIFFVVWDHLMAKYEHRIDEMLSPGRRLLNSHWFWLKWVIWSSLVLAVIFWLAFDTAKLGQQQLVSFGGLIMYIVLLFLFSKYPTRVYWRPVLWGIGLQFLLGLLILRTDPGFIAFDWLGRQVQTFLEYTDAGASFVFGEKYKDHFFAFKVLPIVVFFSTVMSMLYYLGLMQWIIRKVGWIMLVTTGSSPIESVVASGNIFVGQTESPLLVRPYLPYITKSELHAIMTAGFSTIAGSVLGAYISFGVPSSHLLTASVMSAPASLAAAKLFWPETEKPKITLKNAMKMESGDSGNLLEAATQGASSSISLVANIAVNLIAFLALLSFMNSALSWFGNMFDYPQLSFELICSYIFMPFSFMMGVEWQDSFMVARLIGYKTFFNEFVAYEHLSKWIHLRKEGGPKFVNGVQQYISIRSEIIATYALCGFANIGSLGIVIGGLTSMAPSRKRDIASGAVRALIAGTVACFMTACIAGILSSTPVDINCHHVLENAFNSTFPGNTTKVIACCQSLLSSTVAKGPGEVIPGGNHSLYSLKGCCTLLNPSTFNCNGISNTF
# From the text: (§1) To detect nucleoside transport by hCNTs, we turned to two-electrode voltage-clamp electrophysiological recording. Because hCNTs are Na^+-nucleoside symporters, one can measure the current generated by the Na^+ transport that is coupled with nucleoside transport. We injected Xenopus oocytes with mRNA coding for each of the hCNTs and measured inward Na^+ currents elicited by the addition of different nucleosides to the extracellular side.
# (§2) The genes coding for the three hCNTs and vcCNT were cloned into a pGEM-HE vector. Plasmids were linearized using either SphI or NheI, and mRNA was transcribed using the mMESSAGE mMACHINE T7 Transcription Kit (Ambion, Grand Island, NY). Defolliculated Xenopus laevis oocytes were purchased from Ecocyte Bioscience (Austin, TX). Individual oocytes were injected with 40 ng of mRNA using a 10-μl microdispenser (Drummond Scientific, Broomall, PA) fitted with a tapered glass pipette tip and incubated at 17 °C for 4–5 days in ND96 buffer (96 mM NaCl, 2 mM KCl, 1 mM MgCl2, 1.8 mM CaCl2, and 5 mM HEPES pH 7.5) with 0.1% penicillin and streptomycin before recording.
# The oocyte-recording chamber was gravity-perfused with ND96 buffer at a rate of 2 ml/min. Membrane currents were measured using an Oocyte Clamp (OC-725C; Warner Instruments, Hamden, CT). Individual oocytes were penetrated with two microelectrodes filled with 3 M KCl (0.5–1.0 MΩ). All electrophysiological experiments were conducted at room temperature. The OC-725C Oocyte Clamp was computer-interfaced via an Axon Digidata 1550 and controlled by Axoscope software (Molecular Devices, Sunnyvale, CA). The current signals were filtered at 20 Hz and sampled at intervals of 20 ms. The signals were filtered at 0.5 Hz by use of pCLAMP 10.4 software for data presentation. […] Cells were discarded if resting membrane potentials were unstable or more positive than −30 mV. Oocyte membrane potentials were clamped at −90 mV for holding potentials to measure transporter-generated currents. All data are shown as means ± SEM.
# hCNT2 = hCNT2 (Homo sapiens, UniProt O43868); test: two-electrode voltage-clamp of Na+ currents in Xenopus oocytes expressing hCNT2; format: cell-based; settings: data not shown
# From the text: as §1, §2
# The oocyte-recording chamber was gravity-perfused with ND96 buffer at a rate of 2 ml/min. Membrane currents were measured using an Oocyte Clamp (OC-725C; Warner Instruments, Hamden, CT). Individual oocytes were penetrated with two microelectrodes filled with 3 M KCl (0.5–1.0 MΩ). […]
# hCNT3 (375L/446V) = hCNT3 (375L/446V) (Homo sapiens, UniProt Q9HAS3, L446V/V375L); test: two-electrode voltage-clamp total charge in Xenopus oocytes expressing hCNT3 (375L/446V); format: cell-based; settings: mean of Exp. 1-11
# From the text: In the paradigm of the alternating-access mechanism of sodium-coupled symporters ([Krishnamurthy et al., 2009]), substrate release is achieved by the transition from the inward-facing occluded to the inward-facing open state (Figure 6C).
# Figure 6. […] (A) Model of hCNT3 nucleo-pocket. […] (B) Model of hCNT1 nucleo-pocket. […] (C) Hypothetical alternating-access mechanism of vcCNT. A cartoon representation of the different conformational states along the transport cycle is depicted. The transport domain (including HP1, HP2, TM4b, and TM7b) and TM6 are shown as cylinders. […] The nucleo-pocket in the inward-occluded conformation (bottom right) is located between TM6 and TM4 and is marked with a green star. The inward-occluded conformation is derived from the crystal structures of vcCNT. All other conformations are purely hypothetical. The transition between inward- and outward-facing conformations has been proposed to be achieved by a rigid-body movement of the transport domain across TM6 ([Johnson et al., 2012]). Extracellular and intracellular gating likely involves slight rearrangements of HP2/TM4b and HP1/TM7b, respectively. […] See Figure 6—source data 1 for total charge source data. DOI: http://dx.doi.org/10.7554/eLife.03604.024 Figure 6—source data 1. Total charge data. Total charge transported (μC) was calculated as the area under the curve of the current trace after application of the indicated nucleoside to hCNT-expressing Xenopus oocytes. Each row represents a separate experiment done using a different oocyte. The ratios of the total charge transported for the nucleosides are shown in the last columns.
# The genes coding for the three hCNTs and vcCNT were cloned into a pGEM-HE vector. Plasmids were linearized using either SphI or NheI, and mRNA was transcribed using the mMESSAGE mMACHINE T7 Transcription Kit (Ambion, Grand Island, NY). […]
# The oocyte-recording chamber was gravity-perfused with ND96 buffer at a rate of 2 ml/min. Membrane currents were measured using an Oocyte Clamp (OC-725C; Warner Instruments, Hamden, CT). […]
# Chain of vcCNT (Q9KPL5 entry or part of it): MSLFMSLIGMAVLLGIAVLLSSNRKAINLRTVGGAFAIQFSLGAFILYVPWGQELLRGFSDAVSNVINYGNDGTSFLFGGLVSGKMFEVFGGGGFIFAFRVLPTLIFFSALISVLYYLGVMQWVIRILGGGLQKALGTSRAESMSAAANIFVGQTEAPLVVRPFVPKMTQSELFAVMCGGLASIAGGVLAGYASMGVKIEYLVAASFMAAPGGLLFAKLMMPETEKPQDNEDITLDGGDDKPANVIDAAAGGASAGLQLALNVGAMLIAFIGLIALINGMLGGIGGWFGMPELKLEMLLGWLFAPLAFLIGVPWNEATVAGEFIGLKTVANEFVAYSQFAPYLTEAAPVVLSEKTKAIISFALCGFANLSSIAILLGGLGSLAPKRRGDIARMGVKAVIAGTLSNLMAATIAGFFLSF
# Chain of hCNT3 (375L/446V) (Q9HAS3 whole entry V375L/L446V): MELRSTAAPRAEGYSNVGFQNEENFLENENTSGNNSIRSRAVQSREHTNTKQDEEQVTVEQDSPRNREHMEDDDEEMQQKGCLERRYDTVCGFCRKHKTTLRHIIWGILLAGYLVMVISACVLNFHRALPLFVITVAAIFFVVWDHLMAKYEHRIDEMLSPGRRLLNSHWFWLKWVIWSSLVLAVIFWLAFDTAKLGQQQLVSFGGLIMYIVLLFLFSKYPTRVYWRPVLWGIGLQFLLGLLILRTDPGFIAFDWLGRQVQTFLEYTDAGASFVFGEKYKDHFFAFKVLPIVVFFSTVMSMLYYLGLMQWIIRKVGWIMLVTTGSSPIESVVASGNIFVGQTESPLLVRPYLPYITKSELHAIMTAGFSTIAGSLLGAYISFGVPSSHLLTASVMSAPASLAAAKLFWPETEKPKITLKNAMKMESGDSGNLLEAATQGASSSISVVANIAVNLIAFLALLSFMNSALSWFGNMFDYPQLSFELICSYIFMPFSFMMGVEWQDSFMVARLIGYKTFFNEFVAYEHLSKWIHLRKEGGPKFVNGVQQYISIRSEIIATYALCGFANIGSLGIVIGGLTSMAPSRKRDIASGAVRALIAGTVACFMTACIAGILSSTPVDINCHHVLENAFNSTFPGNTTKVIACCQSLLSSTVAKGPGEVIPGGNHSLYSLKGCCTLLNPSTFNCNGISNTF
# Chain of hCNT2 (O43868 whole entry): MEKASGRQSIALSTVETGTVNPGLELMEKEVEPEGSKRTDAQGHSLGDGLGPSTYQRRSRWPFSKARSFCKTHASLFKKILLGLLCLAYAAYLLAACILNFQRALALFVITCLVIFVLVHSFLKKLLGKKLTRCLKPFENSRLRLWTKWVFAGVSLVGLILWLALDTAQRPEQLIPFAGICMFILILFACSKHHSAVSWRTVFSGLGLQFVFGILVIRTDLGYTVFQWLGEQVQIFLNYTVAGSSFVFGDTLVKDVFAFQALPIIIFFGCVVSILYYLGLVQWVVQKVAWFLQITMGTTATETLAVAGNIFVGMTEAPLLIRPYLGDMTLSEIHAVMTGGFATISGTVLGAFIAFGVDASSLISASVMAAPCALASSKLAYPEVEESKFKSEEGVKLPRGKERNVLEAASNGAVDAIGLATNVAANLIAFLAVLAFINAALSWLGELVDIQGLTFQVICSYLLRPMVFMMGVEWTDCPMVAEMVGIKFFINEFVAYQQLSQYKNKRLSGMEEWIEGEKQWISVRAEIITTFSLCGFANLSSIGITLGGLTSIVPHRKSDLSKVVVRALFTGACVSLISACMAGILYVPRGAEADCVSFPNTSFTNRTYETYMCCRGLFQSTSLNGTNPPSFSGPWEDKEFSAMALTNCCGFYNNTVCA
structure (smiles),measurement,setting,value
Cc1cc2cn([C@@H]3O[C@H](CO)[C@@H](O)C3(F)F)c(=O)nc2[nH]1 [pyrrolo-gemcitabine],mAnisotropy,vcCNT; [vcCNT] 0 μM,44.1 and 33.7 and 35.1
same,mAnisotropy,vcCNT; [vcCNT] 1.0 μM,45.4 and 36.3 and 43.5
same,mAnisotropy,vcCNT; [vcCNT] 2.5 μM,55.8 and 48.4 and 48.8
same,mAnisotropy,vcCNT; [vcCNT] 5.0 μM,72.7 and 68.7 and 59.5
same,mAnisotropy,vcCNT; [vcCNT] 10 μM,92.3 and 80.0 and 79.5
same,mAnisotropy,vcCNT; [vcCNT] 25 μM,127.1 and 118.0 and 110.9
same,mAnisotropy,vcCNT; [vcCNT] 50 μM,153.7 and 139.6 and 136.3
same,mAnisotropy,vcCNT; [vcCNT] 100 μM,173.8 and 165.0
same,mAnisotropy,vcCNT; [vcCNT] 200 μM,187.8 and 174.6
same,Kd,"vcCNT; direct titration of fluorescent nucleoside with vcCNT, single-site model, mean ± SEM, read-out: KD",24 µM and 23.5 µM
same,decrease of KD relative to gemcitabine,vcCNT; vcCNT,~60 fold
same,"Total charge transported, Mean","hCNT3; 200 μM nucleoside, hCNT3-expressing Xenopus oocytes, mean of Exp. 1-14",0.082 μC
same,Na+ current on addition of nucleoside,"hCNT3; hCNT3-expressing oocytes, 200 μM",almost no effect
same,"Qgem/Qpyr-gem, Mean","hCNT3; ratio of total charge, 200 μM each, hCNT3, mean of Exp. 1-14",96.071
same,transport by hCNT2,hCNT2,transported neither compound
same,"Total charge transported, Mean","hCNT3 (375L/446V); 400 μM nucleoside, hCNT3 (375L/446V)-expressing Xenopus oocytes",4.864 μC
same,"Qgem/Qpyr-gem, Mean","hCNT3 (375L/446V); ratio of total charge, 400 μM each, hCNT3 (375L/446V)",1.287
